One assay addresses T1, αvβ3 integrin receptor (Homo sapiens, UniProt P05106+P06756).
T1 construct: purchased Chemicon International Inc., Temecula, Calif
The experiment in a line: Solid-phase receptor-binding assay, competition with [125I]-echistatin, αvβ3. The settings on record: IC50 in the receptor high-affinity state; IC50±SD, average of three or more independent determinations; 0.05 nM [125I]echistatin. As for the experimental part:
(§1) Integrin-coated 96-well plates were incubated with the ligand in the presence of serially diluted competing compounds.
(§2) Solid-Phase Receptor-Binding Assay (General Procedure). The receptor binding assays were performed as described previously (Kumar, C. C.; et al. J. Pharmacol. Exp. Ther. 1997, 283, 843). Purified αvβ3 and αvβ5 receptors (Chemicon International Inc., Temecula, Calif.) were diluted to 500 ng/mL and 1000 ng/mL, respectively, in coating buffer [20 mM Tris-HCl (pH 7.4), 150 mM NaCl, 2 mM CaCl2, 1 mM MgCl2 and 1 mM MnCl2]. An aliquot of diluted receptors (100 μL/well) was added to 96-well microtiter plates and incubated overnight at 4° C. Coating solution was removed and 200 μL of blocking solution (coating buffer plus 1% BSA) were added to the wells and incubated for additional 2 h at room temperature. After incubation, the plates were rinsed three times with 200 μL of blocking-binding solution and incubated for 3 h at room temperature with 0.05 nM and 0.1 nM [^125I]Echistatin (Amersham Pharmacia) for αvβ3 and αvβ5 receptor binding assays, respectively. After incubation, the plates were sealed and counted in the γ-counter (Packard).

The target in another assay is T2, αvβ5 integrin receptor (Homo sapiens, UniProt P06756+P18084).
T2 construct: purchased Chemicon International Inc., Temecula, Calif
The assay can be described thus: Solid-phase receptor-binding assay, competition with [125I]-echistatin, αvβ5. The note with it: IC50±SD, average of three or more independent determinations, 0.1 nM [125I]echistatin. As for the experimental part: as §1, §2

The mark [1] stands for this setting: no high-affinity-state footnote.

For the compound `CCC(=O)N1C[C@@H]2C[C@H]1C(=O)N[C@@H](CCCNC(=N)N)C(=O)NCC(=O)N[C@@H](CC(=O)O)C(=O)N2` [(Ih), c[Arg-Gly-Asp-AMPRO4-]], the IC50 (commonly the concentration at which inhibition is half-maximal) on αvβ3 integrin receptor came out at 0.03 ± 0.01 nM; on αvβ5 integrin receptor (setting [1]) it was 94 ± 13 nM.

For `N=C(N)NCCC[C@@H]1NC(=O)[C@@H]2C[C@@H](CN2C(=O)c2ccccc2)NC(=O)[C@H](CC(=O)O)NC(=O)CNC1=O` [(If), c[-Arg-Gly-Asp-AMPRO2-]], the half-inhibitory concentration (IC50) on αvβ3 integrin receptor came to 0.16 ± 0.03 nM; at αvβ5 integrin receptor (setting [1]), 86.6 ± 5.7 nM.

As to `N=C(N)NCCC[C@@H]1NC(=O)[C@@H]2C[C@H](CN2C(=O)c2ccccc2)NC(=O)[C@H](CC(=O)O)NC(=O)CNC1=O` [(Ii), c[-Arg-Gly-Asp-AMPRO5-]], the IC50 came out at 0.91 ± 0.4 nM on αvβ3 integrin receptor and 89.2 ± 5.4 nM on αvβ5 integrin receptor (setting [1]).

As for `CCCCCCCN1C[C@@H]2C[C@H]1C(=O)N[C@@H](CCCNC(=N)N)C(=O)NCC(=O)N[C@@H](CC(=O)O)C(=O)N2` [(Ip), c[-Arg-Gly-Asp-AMPRO15-]], the IC50 on αvβ3 integrin receptor is 0.08 ± 0.02 nM; on αvβ5 integrin receptor (IC50 in the receptor high-affinity state), 0.88 ± 0.23 nM.

For the origin of these results see patent publication US20100093612A1, “INTEGRIN TARGETED CYCLOPEPTIDE LIGANDS, THEIR PREPARATION AND USE” (priority 2007, published 2010).
